Data reported in US8765791B2, “Method of treating cancer using a neuropeptide Y 5R (NP Y5R) antagonist” (University Health Network, priority 2008, dated 2014).

Tests used:
MCF-7 cells = assay: breast cancer xenograft model (Example 4); assay type: in vivo, SCID mice
Experimental: MCF-7 cells were dissociated from flask surfaces then counted and spun down with a final concentration of 10×10^7 cells/ml produced. A total of 20 SCID mice, aged 6-8 weeks (CRL-CB17), were injected with 10×10^6 cells into lower mammary fat pads. After 3 weeks, all mice were inspected for tumor establishment and were measured for size (FIG. 5).
For this study, a total of 15 mice were selected from a group of 20, which had similar tumor sizes (3×3). Subsequently, these 15 mice were divided into three groups of 5. The first group, the control group, received the vehicle only (20% ETOH and 80% PEG 400); the second group received a dosage of 30 mg/kg of MK0557; and the third group received a dosage of 15 mg/kg of MK0557.
All groups were injected everyday via IP for the first five days, followed by injections every other day.

[1] = tested on: Hodgkin Lymphoma cells, HD-MYZ; assay: Hodgkin lymphoma xenograft model (Example 5); assay type: in vivo, NOD-SCID mice; conditions: 30 mg/kg ip 2/week, to day 36
Experimental: Hodgkin Lymphoma cells, HD-MYZ, (4 million) were injected subcutaneously on the left flank of 10-12 week old, female NOD-SCID mice (from The Jackson Lab, Cat#001303). […] The mice were sacrificed on day 36 when the experiment ended (FIG. 6).

HUV-EC-C cells = assay: in vitro angiogenesis assay, tube formation; assay type: cell-based; conditions: HUV-EC-C on ECMatrix, after 5 hours
Experimental: HUV-EC-C cells were purchased from ATCC and routinely cultured in Ham's F12K medium supplemented with 10% FBS, 2 mM L-glutamine, 1.5 g/L sodium bicarbonate, 0.1 mg/ml heparin and 0.03 mg/ml endothelial cell growth supplement (ECGS).
An In Vitro Angiogenesis Assay kit from Chemicon (Cat#ECL625) was used for testing HUV-EC-C tube formation. Cells were incubated on ECMatrix coated 96-well plate at 8×10^3 cells per well in growth medium with or without NPY, its antagonist MK0557, or DMSO as a control. Inhibition of in vitro endothelial tubule formation by MK0557 was quantitated from photographs after 5 hours by counting the number of tubes in the well (FIG. 7).

[2] = tested on: Ovarian cancer cells SKOV-3; assay: ovarian cancer xenograft model (Example 13); assay type: in vivo, SCID mice; conditions: 30 mg/kg i.p. 3/week
Source text: Ovarian cancer cells SKOV-3 (5 millions) were implanted s.c. on the right flank of SCID mice (CB17, female, 4-6 weeks) (Charles River, Wilmington, Mass.). The mice were divided into four groups, 5 mice for each group. The treatments were started when the tumor volume reached at around 60 mm3, day 8 after tumor implantation. […] The tumor growth was monitored for the duration of the experiment. […] (FIG. 14)

[3] = tested on: Hodgkin Lymphoma cells, HD-MYZ; assay: Hodgkin lymphoma xenograft model, MK0557 vs AVASTIN (Example 14); assay type: in vivo, NOD-SCID mice; conditions: for inhibition rate (tumor volume) / inhibition rate (tumor weight): versus vehicle
Source text: Hodgkin lymphoma cells, HD-MYZ, were implanted in NOD-SCID mice. […] Tumor volume and tumor growth were monitored during the experiment.

[4] = tested on: Breast cancer cells, MDA MB 468; assay: breast cancer xenograft model, MK0557 and 5-FU (Example 15); assay type: in vivo, CB17-SCID; conditions: MK0557 alone, 30 mg/kg ip. 3/week
Experimental: Breast cancer cells, MDA MB 468, were injected into CB17-SCID. The treatments were started day 14 after tumor implantation. […] Tumor volume and tumor growth were monitored during the experiment.

[5] = tested on: Hodgkin Lymphoma cells, HD-MYZ; assay: Hodgkin's lymphoma xenograft model, MK-0557 and 200464 (Example 16); assay type: in vivo
Source text: Hodgkin lymphoma cells, HD-MYZ, were implanted in NOD-SCID mice, female, 4-6 weeks from Jackson's Laboratory (Maine). The treatments were started day 6 after tumor implantation. The mice were divided to six groups, 4-5 mice from each group. The treatment started with a tumor volume of about 70 mm3 after tumor implantation.

human NPY1R = molecular target: T1, human NPY1R (Homo sapiens, UniProt P25929); conditions: at a concentration of 10 μM; cited from earlier work
T1 sequence (P25929 1-384): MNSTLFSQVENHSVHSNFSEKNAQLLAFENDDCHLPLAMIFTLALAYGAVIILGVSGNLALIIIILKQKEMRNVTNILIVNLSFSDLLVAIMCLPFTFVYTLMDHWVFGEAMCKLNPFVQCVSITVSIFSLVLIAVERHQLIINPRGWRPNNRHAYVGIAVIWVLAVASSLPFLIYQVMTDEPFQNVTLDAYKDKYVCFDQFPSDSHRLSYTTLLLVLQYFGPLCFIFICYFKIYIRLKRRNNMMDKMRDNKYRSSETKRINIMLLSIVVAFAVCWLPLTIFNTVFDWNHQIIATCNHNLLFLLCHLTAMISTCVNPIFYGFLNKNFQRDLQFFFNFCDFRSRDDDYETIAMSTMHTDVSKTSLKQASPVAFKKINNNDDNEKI

human NPY4R = human NPY4R (Homo sapiens, UniProt P50391); conditions: at a concentration of 10 μM; cited from earlier work
human NPY4R, sequence (P50391 whole entry): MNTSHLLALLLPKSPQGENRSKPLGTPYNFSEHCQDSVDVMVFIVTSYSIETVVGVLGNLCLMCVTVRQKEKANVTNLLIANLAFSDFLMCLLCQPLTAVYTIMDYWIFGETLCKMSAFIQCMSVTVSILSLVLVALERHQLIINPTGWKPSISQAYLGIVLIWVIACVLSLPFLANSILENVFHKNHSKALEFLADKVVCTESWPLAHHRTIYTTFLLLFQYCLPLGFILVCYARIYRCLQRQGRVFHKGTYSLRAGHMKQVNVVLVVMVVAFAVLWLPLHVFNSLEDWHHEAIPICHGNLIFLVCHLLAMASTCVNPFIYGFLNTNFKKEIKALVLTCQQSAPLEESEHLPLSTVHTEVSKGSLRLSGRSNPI

mouse NPY6R = molecular target: T2, mouse NPY6R (Mus musculus, UniProt Q61212); conditions: at a concentration of 10 μM; cited from earlier work
T2 sequence (Q61212 1-371): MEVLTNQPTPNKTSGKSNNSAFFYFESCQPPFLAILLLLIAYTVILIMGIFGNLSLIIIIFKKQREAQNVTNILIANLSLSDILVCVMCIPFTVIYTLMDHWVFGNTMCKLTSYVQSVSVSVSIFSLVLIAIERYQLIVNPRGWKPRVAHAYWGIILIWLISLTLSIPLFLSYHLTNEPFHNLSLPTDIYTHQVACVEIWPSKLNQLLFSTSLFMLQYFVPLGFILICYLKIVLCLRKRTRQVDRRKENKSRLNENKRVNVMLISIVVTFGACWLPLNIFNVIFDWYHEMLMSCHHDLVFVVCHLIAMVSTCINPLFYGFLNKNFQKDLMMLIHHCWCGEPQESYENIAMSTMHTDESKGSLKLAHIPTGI

[6] = cited from earlier work
[7] = 15 mg/kg i.p. every day×3 weeks
[8] = 60 mg/kg p.o. every day×3 weeks
[9] = group 4: MK 0557 30 mg/kg i.p. 3 times for each week, versus vehicle

SMILES: O=C1O[C@]2(CC[C@H](C(=O)Nc3ccn(-c4ccccc4F)n3)CC2)c2cnccc21 [MK-0557, trans-N-[1-(2-fluorophenyl)-3-pyrazolyl]-3-oxospiro[6 azaisobenzofuran-1(3H), 1′-cyclohexane]-4′carboxamide]
- mice tumor free (MCF-7 cells; 30 mg/kg IP, third week): 4 out of 5
- tumor growth (MCF-7 cells; MCF-7 xenograft, 30 mg/kg and 15 mg/kg IP): dose-dependent inhibition of tumor growth
- tumor size in treated groups (MCF-7 cells; second week, 30 mg/kg and 15 mg/kg IP): tumor shrinkage was noticed
- tumor growth [1]: inhibition of tumor growth
- tube formation (HUV-EC-C cells): inhibits tube formation
- tumor growth [2]: inhibited tumor growth
- Mean Tumor Volume [3, 7]: 698.76±61.19 mm^3
- Mean Tumor Weight [3, 7]: 0.40 ± 0.09 g
- inhibition rate (tumor volume) [3, 7]: 73.13%
- inhibition rate (tumor weight) [3, 7]: 84.19%
- Mean Tumor Volume [3, 8]: 671.97±96.89 mm^3
- Mean Tumor Weight [3, 8]: 0.43 ± 0.17 g
- inhibition rate (tumor volume) [3, 8]: 74.16%
- inhibition rate (tumor weight) [3, 8]: 83.0%
- Mean Tumor Volume [4]: 392.73±80.63 mm^3
- Mean Tumor Weight [4]: 0.1582 ± 0.0345 g
- inhibition rate (tumor volume) ([4]; versus vehicle): 38.85%
- inhibition rate (tumor weight) ([4]; versus vehicle): 38.59%
- tolerability of the doses by the mice ([5]; doses of Example 16, except group 6): well tolerated
- Mean Tumor Volume ([5]; group 4: MK 0557 30 mg/kg i.p. 3 times for each week): 435.54+/−72.17 mm^3
- inhibition rate (tumor volume) [5, 9]: 70.94%
- inhibition rate (tumor weight) [5, 9]: 67.30%
- Mean Tumor Weight ([5]; group 4: MK 0557 30 gm/kg i.p. 3 times for each week): 0.3048 ± 0.0696 g
- binding to human NPY1R (human NPY1R): does not significantly bind
- binding to human NPY4R (human NPY4R): does not significantly bind
- binding to mouse NPY6R (mouse NPY6R): does not significantly bind
- reduction in weight regain ([6]; following very-low-calorie-diet induced weight loss): did not result in a clinically meaningful reduction in weight regain
- weight loss ([6]; overweight or obese adults, 1 mg/day, 5 mg/day or 25 mg/day): did not induce clinically meaningful weight loss
